Test results as given in patent US20090143361A1, “Pyrido[3,2-E]Pyrazines, Process For Preparing The Same, And Their Use As Inhibitors Of Phosphodiesterase 10” (ELBION GMBH, priority 2007, published 2009).
Read-outs that look alike come from different tables or passages of the source.

Tests used:
[1] = rats; Kostowski et al. 1976; cited from earlier work
[2] = rats; Kostowski et al. 1976; cited from earlier work; remark: listed apart in the source
PDE10 from pig striatum = PDE10 from pig striatum (Sus scrofa, UniProt A0A287B941); experiment: Inhibition of PDE10 from pig striatum ([3H]-cAMP SPA); type: biochemical
[3] = rats; Kostowski et al. 1976; cited from earlier work; remark: listed apart in the source
[4] = target: PDE10 from guinea pig striatum (Cavia porcellus, UniProt A0A286XN47); experiment: Inhibition of PDE10 from guinea pig striatum ([3H]-cAMP SPA); type: biochemical; conditions: Method B
Sequence of PDE10 from guinea pig striatum (A0A286XN47 1-773): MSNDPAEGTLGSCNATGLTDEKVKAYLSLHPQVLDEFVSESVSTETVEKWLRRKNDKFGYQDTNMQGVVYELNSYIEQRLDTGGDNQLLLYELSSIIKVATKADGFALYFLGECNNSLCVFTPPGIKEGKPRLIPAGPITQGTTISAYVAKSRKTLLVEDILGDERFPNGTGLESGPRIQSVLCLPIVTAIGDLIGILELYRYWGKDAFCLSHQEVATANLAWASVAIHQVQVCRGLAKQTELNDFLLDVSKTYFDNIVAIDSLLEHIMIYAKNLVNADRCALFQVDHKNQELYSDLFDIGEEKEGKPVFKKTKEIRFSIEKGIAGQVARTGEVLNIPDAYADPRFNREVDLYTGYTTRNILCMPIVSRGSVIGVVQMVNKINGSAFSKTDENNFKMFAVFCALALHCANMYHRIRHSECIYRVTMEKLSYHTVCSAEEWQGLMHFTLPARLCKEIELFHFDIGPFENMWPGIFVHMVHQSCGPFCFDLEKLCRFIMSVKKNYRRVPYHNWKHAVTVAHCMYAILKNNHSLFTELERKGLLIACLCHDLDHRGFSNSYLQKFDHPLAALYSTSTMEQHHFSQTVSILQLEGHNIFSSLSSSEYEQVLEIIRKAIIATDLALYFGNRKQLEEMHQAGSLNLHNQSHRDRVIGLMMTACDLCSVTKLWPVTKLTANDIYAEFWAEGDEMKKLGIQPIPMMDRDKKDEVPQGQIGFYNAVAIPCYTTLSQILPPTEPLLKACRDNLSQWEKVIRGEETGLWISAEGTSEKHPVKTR
Method: (§1) The phosphodiesterase isoenzyme 10 (PDE10) activity was determined in preparations of rat, pig and guinea pig striatum respectively. Striatum from male Wistar rats (180-200 g), male hybrid pigs (150 kg) and male guinea pigs (CRL (HA), 500 g) respectively were collected and frozen at −70° C. At the day of preparation 0.5 g striatum was homogenized in 10 ml 50 mM Tris/Mg-buffer at 4° C. and centrifuged for one hour at 100000 g. The supernatant is called the cytosolic fraction and was removed and stored on ice. The pellet was resuspended in the same buffer, but containing 1% Triton and incubated for 45 min at 4° C. Both fractions were independently applied onto a 5 ml Hi Trap™ QHP column at the Akta-FPLC. After washing the columns the bound PDE protein was eluted with an increasing sodium chloride gradient (0 mM-500 mM sodium chloride) in 50 mM Tris/Mg-buffer at 4° C. for the cytosolic fraction and in the presence of 1% Triton for the membrane fraction. […] The fractions with PDE10-activity were pooled and frozen in aliquots until use at −20° C. PDE10 activity was determined in a one step procedure in microtiterplates. […] Nonspecific activity was tested without the enzyme. […] One hour later the mixture was measured in a liquid scintillation counter for microtiterplates (Microbeta Trilux). […]

human recombinant PDE10A = target: T1, human recombinant PDE10A (Homo sapiens, UniProt Q9Y233); experiment: Inhibition of PDE10, human recombinant PDE10A ([3H]-cAMP SPA); type: biochemical
T1 construct: made in house; host or cells: SF21 insect cells (baculovirus)
T1 sequence (Q9Y233 1-779 isoform Q9Y233-1): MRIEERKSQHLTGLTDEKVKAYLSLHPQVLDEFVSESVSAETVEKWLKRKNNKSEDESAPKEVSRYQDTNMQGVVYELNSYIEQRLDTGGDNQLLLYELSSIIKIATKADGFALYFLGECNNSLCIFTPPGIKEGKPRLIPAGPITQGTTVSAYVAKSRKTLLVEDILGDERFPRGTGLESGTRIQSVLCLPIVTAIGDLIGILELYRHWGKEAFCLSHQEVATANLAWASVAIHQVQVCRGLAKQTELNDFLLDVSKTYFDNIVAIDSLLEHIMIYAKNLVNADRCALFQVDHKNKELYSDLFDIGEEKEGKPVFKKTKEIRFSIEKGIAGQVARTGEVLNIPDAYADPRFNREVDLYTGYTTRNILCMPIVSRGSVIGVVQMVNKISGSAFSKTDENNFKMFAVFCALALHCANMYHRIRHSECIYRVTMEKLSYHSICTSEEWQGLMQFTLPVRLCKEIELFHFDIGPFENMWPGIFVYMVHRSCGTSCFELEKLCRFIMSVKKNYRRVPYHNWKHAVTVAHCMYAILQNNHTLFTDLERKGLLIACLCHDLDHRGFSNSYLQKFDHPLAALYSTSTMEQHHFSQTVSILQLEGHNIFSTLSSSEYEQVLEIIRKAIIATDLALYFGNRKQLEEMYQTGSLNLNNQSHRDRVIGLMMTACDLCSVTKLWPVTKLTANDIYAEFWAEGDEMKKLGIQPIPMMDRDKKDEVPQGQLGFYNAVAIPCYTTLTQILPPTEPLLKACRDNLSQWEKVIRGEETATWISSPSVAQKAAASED
Method: The gene was than inserted into a baculovirus vector, ligated with the baculovirus DNA. The enzyme-protein was expressed in SF21-cells. The enzyme was isolated from these cells by harvesting the cells by a centrifugation at 200 g to collect the cells. The cells were resuspended in 50 mM Tris-HCl/5 mM MgCl2 buffer (pH=7.4) and lysed by a sonication of the cells. The cytosolic PDE10A was obtained by a centrifugation at 48000 g for 1 h in the supernatant and stored at −70° C. PDE10 activity was determined in a one step procedure in microtiterplates. […] Nonspecific activity was tested without the enzyme. The reaction was initiated by addition of the substrate solution and was carried out at 37° C. for 30 minutes. Enzymatic activity was stopped by addition of 25 μl YSi-SPA-beads (Amersham-Pharmacia). One hour later the mixture was measured in a liquid scintillation counter for microtiterplates (Microbeta Trilux). To pipette the incubation mixture a robot Biomek (Fa. Beckman) is used. […] For determination of IC50 values the Hill-plot, 2-parameter-model, was used.

PDE10 from rat striatum = target: T2, PDE10 from rat striatum (Rattus norvegicus, UniProt Q9QYJ6); experiment: Inhibition of PDE10 from rat striatum ([3H]-cAMP SPA); type: biochemical; conditions: Method B, read-out: Km-value for the substrate
T2 construct: from tissue; host or cells: rat (Wistar) striatum, FPLC fractions
T2 sequence (Q9QYJ6 1-794): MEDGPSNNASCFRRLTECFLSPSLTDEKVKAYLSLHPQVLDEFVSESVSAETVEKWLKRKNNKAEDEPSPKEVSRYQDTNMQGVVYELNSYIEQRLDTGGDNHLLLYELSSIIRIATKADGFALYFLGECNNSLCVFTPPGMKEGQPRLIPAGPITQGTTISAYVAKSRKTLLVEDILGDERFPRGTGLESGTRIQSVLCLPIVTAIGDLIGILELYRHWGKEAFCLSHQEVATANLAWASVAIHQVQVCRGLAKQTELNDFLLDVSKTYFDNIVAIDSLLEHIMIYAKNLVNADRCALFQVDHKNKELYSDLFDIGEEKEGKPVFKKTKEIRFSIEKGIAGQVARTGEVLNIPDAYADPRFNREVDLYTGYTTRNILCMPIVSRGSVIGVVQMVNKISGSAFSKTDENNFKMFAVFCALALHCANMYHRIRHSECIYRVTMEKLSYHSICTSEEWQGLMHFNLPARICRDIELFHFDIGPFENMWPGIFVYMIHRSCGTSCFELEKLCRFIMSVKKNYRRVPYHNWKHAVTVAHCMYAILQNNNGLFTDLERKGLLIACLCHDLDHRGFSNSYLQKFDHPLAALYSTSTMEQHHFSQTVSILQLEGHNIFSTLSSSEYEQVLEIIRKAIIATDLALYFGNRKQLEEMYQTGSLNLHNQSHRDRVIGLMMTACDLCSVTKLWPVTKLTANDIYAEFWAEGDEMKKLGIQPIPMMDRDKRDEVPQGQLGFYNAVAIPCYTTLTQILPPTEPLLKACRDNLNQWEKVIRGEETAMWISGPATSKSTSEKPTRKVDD
Method: as §1

[5] = target: Phosphodiesterase (PDE) 10A (Homo sapiens, UniProt Q9Y233); conditions: Soderling et al. 1999; cited from earlier work
Sequence of Phosphodiesterase (PDE) 10A (Q9Y233 whole entry): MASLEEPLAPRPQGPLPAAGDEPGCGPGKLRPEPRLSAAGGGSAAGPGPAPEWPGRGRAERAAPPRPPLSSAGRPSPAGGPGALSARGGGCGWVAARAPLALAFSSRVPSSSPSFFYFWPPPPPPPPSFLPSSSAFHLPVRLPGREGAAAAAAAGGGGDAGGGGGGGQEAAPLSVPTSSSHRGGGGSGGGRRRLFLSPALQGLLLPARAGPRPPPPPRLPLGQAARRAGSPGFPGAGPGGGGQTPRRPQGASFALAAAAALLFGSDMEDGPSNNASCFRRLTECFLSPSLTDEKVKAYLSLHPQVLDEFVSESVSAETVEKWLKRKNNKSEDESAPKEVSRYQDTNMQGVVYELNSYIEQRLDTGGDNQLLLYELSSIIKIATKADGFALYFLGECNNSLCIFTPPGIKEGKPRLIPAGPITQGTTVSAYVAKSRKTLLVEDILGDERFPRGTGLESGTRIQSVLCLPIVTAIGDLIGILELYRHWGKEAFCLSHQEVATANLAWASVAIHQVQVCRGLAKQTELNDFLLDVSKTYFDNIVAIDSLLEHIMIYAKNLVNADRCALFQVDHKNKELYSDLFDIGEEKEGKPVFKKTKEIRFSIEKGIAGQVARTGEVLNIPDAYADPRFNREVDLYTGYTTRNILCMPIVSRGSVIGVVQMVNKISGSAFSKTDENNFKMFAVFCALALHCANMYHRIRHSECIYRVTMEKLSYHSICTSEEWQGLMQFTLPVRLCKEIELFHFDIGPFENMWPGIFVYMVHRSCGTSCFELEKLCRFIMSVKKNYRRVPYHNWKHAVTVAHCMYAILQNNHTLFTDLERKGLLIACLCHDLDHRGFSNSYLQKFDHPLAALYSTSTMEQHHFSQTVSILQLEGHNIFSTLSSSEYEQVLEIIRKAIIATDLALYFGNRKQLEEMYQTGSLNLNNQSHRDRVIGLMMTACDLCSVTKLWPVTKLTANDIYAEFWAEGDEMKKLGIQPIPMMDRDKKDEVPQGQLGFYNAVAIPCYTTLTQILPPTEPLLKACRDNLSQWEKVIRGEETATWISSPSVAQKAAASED

[6] = Table 7, read-out: Human PDE10 (IC50 nM)
[7] = Table 7, read-out: PDE10 pig IC50

In the case of `COc1ccc(Cc2nccc3cc(OC)c(OC)cc23)cc1OC` [Papaverine, papaverine], the apomorphine-induced stereotypes [1] is given as “reduces apomorphine-induced stereotypes in rats”, the haloperidol-induced catalepsy [2] is given as “increases haloperidol-induced catalepsy in rats” and the IC50 (PDE10 from pig striatum; Method A, PDE10 from striatum of pig) is given as 103 nM. For the same compound, the IC50 (PDE10 from pig striatum; Method B, PDE10 from striatum of pig, read-out: IC50) was 110 nM, the “dopamine concentration in rat brain” value [3] was “reducing dopamine concentration in rat brain” and the IC50 [4] was 77 nM.
Work on `COc1ccc2nc(C)c3c(C)nc(-c4cc(OC(F)(F)F)ccc4Cl)n3c2n1` [Example 24, 9-[2-Chloro-5-(trifluoromethoxy)phenyl]-2-methoxy-6,7-dimethylimidazo[1,5-]pyrido[3,2-e]pyrazine] yielded an IC50 (human recombinant PDE10A; [6]) of 10 to 100 nM and an IC50 (PDE10 from pig striatum; [7]) of 10 to 100 nM.
In the case of `COc1ccc2nc(C)c3c(C)nc(-c4cc(C(F)(F)F)ccc4Cl)n3c2n1` [Example 23, 9-[2-Chloro-5-(trifluoromethyl)phenyl]-2-methoxy-6,7-dimethylimidazo[1,5-a]pyrido[3,2-e]pyrazine], the IC50 (human recombinant PDE10A; [6]) is reported as < 10 nM and the IC50 (PDE10 from pig striatum; [7]) is reported as < 10 nM.
For `COc1ccc2nc(C)c3c(C)nc(-c4cc(C#N)ccc4Cl)n3c2n1` [Example 25, 4-Chloro-3-(2-methoxy-6,7-dimethylimidazo[1,5-a]pyrido[3,2-e]pyrazin-9-yl)benzonitrile], the IC50 (human recombinant PDE10A; [6]) was 10 to 100 nM and the IC50 (PDE10 from pig striatum; [7]) was < 10 nM.
Compound `CCOc1ccc(Cl)c(-c2nc(C)c3c(C)nc4ccc(OC)nc4n23)c1` [Example 26, 9-(2-Chloro-5-ethoxyphenyl)-2-methoxy-6,7-dimethylimidazo[1,5-a]pyrido[3,2-e]pyrazine] has an IC50 (human recombinant PDE10A; [6]) of 10 to 100 nM and an IC50 (PDE10 from pig striatum; [7]) of 10 to 100 nM.
For `Nc1nc2c(ncn2[C@@H]2O[C@@H]3COP(=O)(O)O[C@H]3[C@H]2O)c(=O)[nH]1` [cGMP], the Km (PDE10 from rat striatum) is listed as 1.8 µM, the Km [5] is listed as 3 µM and the Km (PDE10 from pig striatum; Method B, pig striatum, read-out: Km-value for the substrate) is listed as 2.2 µM.
For `COc1ccc(Cl)c(-c2nc(C)c3c(C)nc4ccc(OC)nc4n23)c1` [Example 19, 9-(2-Chloro-5-methoxyphenyl)-2-methoxy-6,7-dimethylimidazo[1,5-a]pyrido[3,2-e]pyrazine], the IC50 (human recombinant PDE10A; [6]) was 10 to 100 nM and the IC50 (PDE10 from pig striatum; [7]) was < 10 nM.
In the case of `COc1ccc2nc(C)c3c(C)nc(-c4cc(C)ccc4F)n3c2n1` [Example 21, 9-(2-Fluoro-5-methylphenyl)-2-methoxy-6,7-dimethylimidazo[1,5-a]pyrido[3,2-e]pyrazine], the IC50 (human recombinant PDE10A; [6]) is reported as 10 to 100 nM and the IC50 (PDE10 from pig striatum; [7]) is reported as < 10 nM.
In the case of `Cc1nc(-c2cccc(C(N)=O)c2)n2c1c(C)nc1ccc(OCC3CC3)nc12` [Example 143, 3-[2-(cyclopropylmethoxy)-6,7-dimethylimidazo[1,5-a]pyrido[3,2-e]pyrazin-9-yl]benzamide], the IC50 (human recombinant PDE10A; Table 9, read-out: hPDE10 IC50) is reported as < 10 nM.
With `COc1ccc2nc(C)c3c(C)nc(-c4ccc(F)c(C(N)=O)c4)n3c2n1` [Example 130, 2-fluoro-5-(2-methoxy-6,7-dimethylimidazo[1,5-a]pyrido[3,2-e]pyrazin-9-yl)benzamide] the IC50 (human recombinant PDE10A; Table 9, read-out: hPDE10 IC50) was < 10 nM.
In the case of `Cc1ccc(C(=O)O)cc1-c1nc(C)c2c(C)nc3ccc(OCC4CC4)nc3n12` [Example 146, 3-[2-(cyclopropylmethoxy)-6,7-dimethylimidazo[1,5-a]pyrido[3,2-e]pyrazin-9-yl]-4-methylbenzoic acid], the IC50 (human recombinant PDE10A; Table 9, read-out: hPDE10 IC50) is reported as > 100 nM.
In the case of `COc1ccc2nc(C)c3c(C)nc(-c4ccc(C(F)(F)F)cc4Cl)n3c2n1` [Example 20, 9-[2-Chloro-4-(trifluoromethyl)phenyl]-2-methoxy-6,7-dimethylimidazo[1,5-a]pyrido[3,2-e]pyrazine], the IC50 (human recombinant PDE10A; [6]) is reported as < 10 nM and the IC50 (PDE10 from pig striatum; [7]) is reported as < 10 nM.
With `COc1ccc2nc(N)c3c(C(F)(F)F)nc(-c4ccccc4C)n3c2n1` [Example 38, 2-Methoxy-9-(2-methylphenyl)-7-(trifluoromethyl)imidazo[1,5-a]pyrido[3,2-e]pyrazin-6-amine] the IC50 (human recombinant PDE10A; [6]) was 10 to 100 nM.
With `Cc1ccccc1-c1nc(C)c2c(C)nc3ccc(OCC(F)F)nc3n12` [Example 153, 2-(2,2-difluoroethoxy)-6,7-dimethyl-9-(2-methylphenyl)imidazo[1,5-a]pyrido[3,2-e]pyrazine] the IC50 (human recombinant PDE10A; Table 9, read-out: hPDE10 IC50) was < 10 nM.
With `COc1ccc2nc(C)c3c(C)nc(CC#N)n3c2n1` [Example 133, (2-Methoxy-6,7-dimethylimidazo[1,5-a]pyrido[3,2-e]pyrazin-9-yl)acetonitrile] the IC50 (human recombinant PDE10A; Table 9, read-out: hPDE10 IC50) was > 100 nM.
`COc1ccc2nc(C)c3c(C)nc(-c4cnn(C)c4)n3c2n1` [Example 180, 2-methoxy-6,7-dimethyl-9-(1-methyl-1H-pyrazol-4-yl)imidazo[1,5-a]pyrido[3,2-e]pyrazine] gave an IC50 (human recombinant PDE10A; Table 9, read-out: hPDE10 IC50) of 10 to 100 nM.
For `COc1ccc2nc(C#N)c3c(C)nc(-c4cnccc4C)n3c2n1` [Example 169, 2-methoxy-7-methyl-9-(4-methylpyridin-3-yl)imidazo[1,5-a]pyrido[3,2-e]pyrazine-6-carbonitrile], the IC50 (human recombinant PDE10A; Table 9, read-out: hPDE10 IC50) was > 100 nM.
In the case of `Cc1nc(-c2ccc(C(N)=O)cc2)n2c1c(C)nc1ccc(OCC3CC3)nc12` [Example 142, 4-[2-(cyclopropylmethoxy)-6,7-dimethylimidazo[1,5-a]pyrido[3,2-e]pyrazin-9-yl]benzamide], the IC50 (human recombinant PDE10A; Table 9, read-out: hPDE10 IC50) is reported as < 10 nM.
